Experimental findings from patent publication US20100311714A1, “1H-IMIDAZO[4,5-c]QUINOLINONE COMPOUNDS” (priority 2009, published 2010) are described below.

T1 sequence (P48736 144-1102 limits assumed): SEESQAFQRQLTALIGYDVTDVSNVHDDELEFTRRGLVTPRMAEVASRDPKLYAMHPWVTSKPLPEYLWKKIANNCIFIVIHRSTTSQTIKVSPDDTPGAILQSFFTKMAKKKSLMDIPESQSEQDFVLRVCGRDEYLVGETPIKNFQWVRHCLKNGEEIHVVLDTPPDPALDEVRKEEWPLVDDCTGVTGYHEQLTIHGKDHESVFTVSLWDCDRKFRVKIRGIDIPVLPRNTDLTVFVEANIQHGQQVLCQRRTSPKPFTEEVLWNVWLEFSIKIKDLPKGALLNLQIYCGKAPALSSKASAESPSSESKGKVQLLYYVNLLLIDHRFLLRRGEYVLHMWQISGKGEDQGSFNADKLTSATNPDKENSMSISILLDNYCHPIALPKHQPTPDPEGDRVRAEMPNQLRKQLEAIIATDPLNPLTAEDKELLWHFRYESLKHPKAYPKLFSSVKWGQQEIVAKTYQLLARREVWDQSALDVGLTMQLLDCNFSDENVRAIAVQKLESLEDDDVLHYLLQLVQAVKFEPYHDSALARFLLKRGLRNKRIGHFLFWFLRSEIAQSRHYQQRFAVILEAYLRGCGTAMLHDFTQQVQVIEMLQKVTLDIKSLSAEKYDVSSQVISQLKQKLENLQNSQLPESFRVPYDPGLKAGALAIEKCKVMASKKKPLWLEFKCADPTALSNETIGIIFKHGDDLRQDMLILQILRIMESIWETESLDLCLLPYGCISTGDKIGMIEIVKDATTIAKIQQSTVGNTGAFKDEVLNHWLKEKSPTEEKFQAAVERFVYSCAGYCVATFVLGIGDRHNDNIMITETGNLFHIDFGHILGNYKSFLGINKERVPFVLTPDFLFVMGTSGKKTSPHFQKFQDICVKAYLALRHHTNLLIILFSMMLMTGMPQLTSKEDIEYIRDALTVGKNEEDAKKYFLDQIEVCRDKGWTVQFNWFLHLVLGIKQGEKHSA

The test concerns the target T1, PI3K gamma (Homo sapiens, UniProt P48736).
T1 construct: His tag (C); made in house; host or cells: construct from Roger Williams lab (pVL1393); baculovirus BV950; Tn5 (Trichoplusia ni) or TiniPro insect cells
In words: PI3K gamma kinase assay (Kinase-Glo luminescence). Type of test: biochemical. Particulars: read-out: PI3Kgamma/IC50. The protocol:
In a more preferred assay, the kinase reaction is performed in a final volume of 10 μL per well of a low volume non binding CORNING, 384 well black plate (Cat. No. #3676). The final concentrations of ATP and phosphatidyl inositol (PI) in the assay are 1 μM and 10 μg/mL respectively. The reaction is started by the addition of ATP.
The components of the assay are added per well as follows:
50 nL test compounds in 90% DMSO per well, in columns 1-20, 8 concentrations (⅓ and 1/3.33 serial dilution step) in single. • Low control: […] of 90% DMSO in half the wells of columns 23-24 (0.45% in final). • High control: 50 nL of reference compound (e.g. compound of Example 7 in WO 2006/122806) in the other half of columns 23-24 (2.5 μM in final). • Standard: 50 nL of reference compound as just mentioned diluted as the test compounds in columns 21-22 • 20 mL ‘buffer’ are prepared per assay: • 200 μL of 1M TRIS HCl pH7.5 (10 mM in final) • 60 μL of 1M MgCl2 (3 mM in final) • 500 μL of 2M NaCl (50 mM in final) • 100 μL of 10% CHAPS (0.05% in final) • 200 μL of 100 mM DTT (1 mM in final) • 18.94 mL of nanopure water • 10 mL ‘PI’ are prepared per assay: • 200 μL of 1 mg/ml L-alpha-Phosphatidylinositol (Liver Bovine, Avanti Polar Lipids Cat. No. 840042C MW=909.12) prepared in 3% OctylGlucoside (10 μg/ml in final) • 9.8 mL of ‘buffer’ • 10 mL ‘ATP’ are prepared per assay: • 6.7 μL of 3 mM stock of ATP giving a final concentration of 1 μM per well • 10 mL of ‘buffer’ • 2.5 mL of each PI3K construct are prepared per assay in ‘PI’ with the following final concentration: • 10 nM PI3K alfa EMV B1075 • 25 nM beta EMV BV949 • 10 nM delta EMV BV1060 • 150 nM gamma EMV BV950 • 5 μL of ‘PI/PI3K’ are added per well. • 5 μl ‘ATP’ are added per well to start the reaction. • The plates are then incubated at room temperature for 60 minutes (alfa, beta, delta) or 120 minutes (gamma). • The reaction is terminated by the addition of 10 μL Kinase-Glo (Promega Cat. No. #6714). • The assay plates are read after 10 minutes in Synergy 2 reader (BioTek, Vermont USA) with an integration time of 100 milliseconds and sensitivity set to 191. • Output: The High control is around 60′000 counts and the Low control is 30′000 or lower • This luminescence assay gives a useful Z′ ratio between 0.4 and 0.7
PI3K gamma is purified in two chromatographic steps: immobilized metal affinity chromatography (IMAC) on a Ni Sepharose resin (GE Healthcare) and gel filtration (GFC) utilizing a Superdex 200 26/60 column (GE Healthcare). All buffers are chilled to 4° C. and lysis is performed chilled on ice. Column fractionation is performed rapidly at room temperature. Typically frozen insect cells are lysed in a hypertonic lysis buffer and applied to a prepared IMAC column. The resin is washed with 3-5 column volumes of lysis buffer, followed by 3-5 column volumes wash buffer containing 45 mM imidazole, and the target protein is then eluted with a buffer containing 250 mM imidazole. Fractions are analyzed by Coomassie stained SDS-PAGE gels, and fractions containing target protein are pooled and applied to a prepared GFC column. Fractions from the GFC column are analyzed by Coomassie stained SDS-PAGE gels, and fractions containing target protein are pooled. The final pool is dialyzed into a storage buffer containing 50% glycerol and stored at −20° C. The final pool is assayed for activity in the phosphoinostitol kinase assay.
IC50 is determined by a four parameter curve fitting routine that comes along with “excel fit”. A 4 Parameter logistic equation is used to calculate IC50 values (IDBS XLfit) of the percentage inhibition of each compound at 8 concentrations (usually 10, 3.0, 1.0, 0.3, 0.1, 0.030, 0.010 and 0.003 μM). Alternatively, IC50 values are calculated using idbsXLfit model 204, which is a 4 parameter logistic model.
A general note: Kinase-Glo reads ATP consumption through a luciferase reaction.
Turning to `CNC(=O)c1ccc(-c2ccc3ncc4c(c3c2)n(-c2cccnc2C)c(=O)n4C)cc1` [Example 2.4, N-Methyl-4-[3-methyl-1-(2-methyl-pyridin-3-yl)-2-oxo-2,3-dihydro-1H-imidazo[4,5-c]quinolin-8-yl]-benzamide], the IC50 was 455 nM.

Turning to `Cc1ncccc1-n1c(=O)n(C)c2cnc3ccc(-c4cnc5[nH]ccc5c4)cc3c21` [Example 2.8, 3-Methyl-1-(2-methyl-pyridin-3-yl)-8-(1H-pyrrolo[2,3-b]pyridin-5-yl)-1,3-dihydro-imidazo[4,5-c]quinolin-2-one], the IC50 stood at 361 nM.

With `Cn1c(=O)n(-c2cccnc2F)c2c3cc(-c4cnc5[nH]ccc5c4)ccc3ncc21` [Example 6.3, 1-(2-Fluoro-pyridin-3-yl)-3-methyl-8-(1H-pyrrolo[2,3-b]pyridin-5-yl)-1,3-dihydro-imidazo[4,5-c]quinolin-2-one], the IC50 was determined as 464 nM.
